Key:
5-HT2A receptor = target: T1, 5-HT2A receptor (Rattus norvegicus, UniProt P14842); test: 5-HT2A receptor binding, [3H]-Ketanserine displacement; conditions: rat cortex tissue, read-out: K1 (nM) for 5-HT2A (Rat cortex tissue)
T1 construct: Cerebral cortex was homogenized in 10 volumes of ice cold 0.32 M sucrose; from tissue; host or cells: rat cerebral cortex (male Sprague-Dawley)
Protocol: Male Sprague-Dawley rats (200-250 g) were used. Cerebral cortex was homogenized in 10 volumes of ice cold 0.32 M sucrose. After the centrifugation of the homogenate (1,000×g for 10 minutes) the supernatant was then recentrifuged at 48,000×g for 15 minutes. The resulting pellet was suspended in 10 volumes of 50 mM TRIS buffer (pH 7.4), incubated at 37° C. for 10 minutes and recentrifuged at 48,000 × g for 15 minutes. The residue was then resuspended in 10 volumes of 50 mM TRIS buffer (pH 7.4).
The tissue was diluted 1:100 (w:v) in 50 mM TRIS buffer (pH 7.4) to have a final concentration of about 200 μg/ml. Displacement experiments were performed by incubating the homogenate (980 μl) in the presence of [^3 H]-Ketanserine (10 μl; 0.5-0.6 nM) and different concentrations of the test compounds dissolved in DMSO (10 μl) at 37° C. for 10 minutes (final volume: 1 ml). Nonspecific binding was determined in the presence of 100 μM Methysergide (10 μl). The reaction was stopped by rapid filtration through Inotech IH 201 filters using an Inotech Cell Harvester. The radioactivity was counted by liquid scintillation spectrometry.
(§1) The affinity values (Ki) for the compounds were obtained by a nonlinear least squares regression analysis on the basis of a one binding site model. The values were corrected on the basis of the radioligand occupancy on the receptors according to the equation: Ki =IC50 /(1+[C]/Kd), where [C] and Kd represent the concentration and the dissociation constant of the used radioligands ([^3 H]-8-OH-DPAT for the 5-HT1A binding, [^3 H]-Ketanserine for the 5-HT2A binding and [^3 H]-YM 09151-2) for the D4 binding, respectively).

D4 receptor = target: T2, D4 receptor (Homo sapiens, UniProt P21917); test: D4 receptor binding, [3H]-YM 09151-2 displacement; conditions: CHO cell membranes, read-out: K1 (nM) for D4 (CHO cell membranes)
T2 construct: expressed in transfected cells; host or cells: CHO cells
T2 sequence (P21917 1-419): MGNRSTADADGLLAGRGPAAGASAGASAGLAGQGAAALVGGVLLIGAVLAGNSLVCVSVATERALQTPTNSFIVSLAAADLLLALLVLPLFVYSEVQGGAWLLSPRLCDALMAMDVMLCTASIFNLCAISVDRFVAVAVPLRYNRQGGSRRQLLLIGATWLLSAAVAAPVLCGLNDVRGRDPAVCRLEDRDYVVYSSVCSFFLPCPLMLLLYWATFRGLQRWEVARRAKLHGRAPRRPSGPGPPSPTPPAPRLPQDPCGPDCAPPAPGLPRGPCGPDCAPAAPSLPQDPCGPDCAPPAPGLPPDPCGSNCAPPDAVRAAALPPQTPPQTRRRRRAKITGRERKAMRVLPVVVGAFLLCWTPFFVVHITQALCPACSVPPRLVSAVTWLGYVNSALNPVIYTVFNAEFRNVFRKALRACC
Protocol: Cells were grown in monolayer at 37° C. in 95% air/5% CO2 in Dulbecco's Modified Eagle Medium (DMEM) supplemented with 7.5% (v/v) heat-inactivated fetal bovine serum (FBS), 2.5% (v/v) heat-inactivated horse serum donor herd, 2% of a stock solution containing 5000 I.U./ml penicillin and 5000 μg/ml streptomycin, 1% (v/v) of a solution MEM containing non-essential amino acid, 2 mM glutamine ind 200 μg/ml geneticin. Cells were passaged twice a week using a trypsin/EDTA solution and the split rate was 1:4. Cells were not subcultured more than 17 times.
Preparation of cell membranes:
The cells grown to confluence were washed twice with Dulbecco's PBS buffer and were detached adding VERSENE (PBS containing 0.2 g/l EDTA) for 10 minutes at 37° C. The cell suspension was centrifuged at 1,000 rpm for 10 minutes and the pellet was harvested in DMEM with 10% DMSO and stored at -80° C. Before use, cells were thawed, centrifuged at 1,000 rpm for 10 minutes and the pellet was resuspended in PBS. The cells were centrifuged again at 270×g for 10 minutes at 4° C. and the pellet was resuspended in a lysis buffer (10 mM Tris-HCl pH 7.4, 5 mM Na2 EDTA and protease inhibitors) and incubated for 30 minutes on ice. Cells were homogenized with an Ultra Turrax homogenizer. Unbroken cells and nuclei were removed by an initial centrifugation at 270×g for 10 minutes at 4° C. and crude membranes were collected from the supernatant by a 60 minute spin at 130,000×g. The pelleted membranes were resuspended in the same lysis buffer with 20 strokes by a Potter homogenizer. The final cell membrane suspension, corresponding to about 1×10^7 original cells/ml, was aliquoted and immediately frozen at -80° C.
D4 receptor binding studies were carried out in membranes from CHO cells prepared as above. The membranes were dilute in incubation buffer (50 ml/ TRIS-HCl pH 7.4, 5 mM MgCl2·6H2 O, 5 mM KCl, 1.5 mM CaCl2·2H2 O, 5 mM EDTA) according to their receptor density.
Displacement experiment were performed in 1000 μl total volume incubating the membranes (980 μl) in the presence of [^3 H]-YM 09151-2 (10 μl; 0.15-0.25 nM) and different concentrations of the test compounds dissolved in DMISO (10 μl) at 27° C. for two hours. Nonspecific binding was determined in the presence of 10 μM of Clozapine (10 μl). The reaction was stopped by rapid filtration through Inotech IH 201 filters (pre-soaked in 0.1% polyethyleneimine) using an Inotech Cell Harvester. The radioactivity was counted by liquid scintillation spectrometry.
as §1

5-HT1A receptor = target: T3, 5-HT1A receptor (Rattus norvegicus, UniProt P19327); test: 5-HT1A receptor binding, [3H]-8-OH-DPAT displacement; conditions: rat hippocampus tissue, read-out: K1 (nM) for 5-HT1A (rat hippocampus tissue)
T3 construct: from tissue; host or cells: rat hippocampus (male Sprague-Dawley)
T3 sequence (P19327 1-422): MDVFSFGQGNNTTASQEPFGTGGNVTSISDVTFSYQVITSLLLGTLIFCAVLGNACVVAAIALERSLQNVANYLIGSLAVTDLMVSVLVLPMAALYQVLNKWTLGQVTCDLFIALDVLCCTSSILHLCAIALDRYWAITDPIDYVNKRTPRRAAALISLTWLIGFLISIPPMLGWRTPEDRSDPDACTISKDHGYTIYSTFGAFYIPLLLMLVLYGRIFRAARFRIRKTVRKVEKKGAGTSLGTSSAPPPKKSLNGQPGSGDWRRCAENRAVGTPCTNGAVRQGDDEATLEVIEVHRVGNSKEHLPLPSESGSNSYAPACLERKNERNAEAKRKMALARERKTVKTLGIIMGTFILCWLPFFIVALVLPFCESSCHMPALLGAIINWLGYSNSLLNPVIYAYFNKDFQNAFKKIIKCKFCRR
Protocol: Male Sprague-Dawley rats (200-250 g) were used. The hippocampus taken from these animals was homogenized in 10 volumes of ice cold 50 mM TIUS buffer (pH 7.4). The homogenate was diluted 1:400 (w:v) in the same buffer to have a final protein concentration of about 200 μg/ml, filtered and incubated at 37° C. for 10 minutes before use.
Displacement experiments were performed by incubating the homogenate (980 μl) in the presence of [^3 H]-8-OH-DPAT (10 μl; 1.0-1.2 nM) and different concentrations of the test compounds dissolved in DMSO (10 μl), at 30° C. for 15 minutes (final volume: 1 ml). Nonspecific binding was determined in the presence of 10 μM 5-HT (10 μl). The reaction was stopped by rapid filtration through Inotech IH 201 filters using an Inotech Cell Harvester. The radioactivity was counted by liquid scintillation spectrometry.
as §1

T1 sequence (P14842 whole entry): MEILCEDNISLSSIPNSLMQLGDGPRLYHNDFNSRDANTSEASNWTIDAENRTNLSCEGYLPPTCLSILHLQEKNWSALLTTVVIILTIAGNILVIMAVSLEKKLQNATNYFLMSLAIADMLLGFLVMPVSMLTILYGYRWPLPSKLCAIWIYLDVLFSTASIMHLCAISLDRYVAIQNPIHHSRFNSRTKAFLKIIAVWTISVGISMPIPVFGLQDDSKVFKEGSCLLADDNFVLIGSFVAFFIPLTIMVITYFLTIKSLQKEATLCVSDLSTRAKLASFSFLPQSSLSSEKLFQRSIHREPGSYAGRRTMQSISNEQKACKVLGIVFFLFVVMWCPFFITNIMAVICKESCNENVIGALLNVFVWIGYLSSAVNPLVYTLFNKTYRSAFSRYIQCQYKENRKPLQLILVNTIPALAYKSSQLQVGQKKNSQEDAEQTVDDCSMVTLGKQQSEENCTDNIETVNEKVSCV

SMILES | Ki (5-HT2A receptor) | Ki (D4 receptor) | Ki (5-HT1A receptor)
O=c1[nH]c2cc(O)ccc2n1CCN1CCN(c2cccc(C(F)(F)F)c2)CC1 [Compound 1, 5-Hydroxy-1-{2-[4-(3-trifluoromethylphenyl)piperazin-1-yl]ethyl}-1,3-dihydro-benzimidazol-2-one] | 58.5 nM | 287 nM | 40.8 nM
O=c1[nH]c2ccc(O)cc2n1CCN1CCN(c2cccc(C(F)(F)F)c2)CC1 [Compound 2, 6-Hydroxy-1-{2-[4-(3-trifluoromethylphenyl)piperazin-1-yl]ethyl}-1,3-dihydro-benzimidazol-2-one] | 33.8 nM | 804 nM | 333 nM
O=c1[nH]c2c(O)cccc2n1CCN1CCN(c2cccc(C(F)(F)F)c2)CC1 [Compound 3, 4-Hydroxy-1-{2-[4-(3-trifluoromethylphenyl)piperazin-1-yl]ethyl}-1,3-dihydro-benzimidazol-2-one] | 43.8 nM | 33.9 nM | 15.4 nM
O=c1[nH]c2cccc(O)c2n1CCN1CCN(c2cccc(C(F)(F)F)c2)CC1 [Compound 4, 7-Hydroxy-1-{2-[4-(3-trifluoromethylphenyl)piperazin-1-yl]ethyl}-1,3-dihydro-benzimidazol-2-one] | 23.8 nM | 652 nM | 1590 nM
O=c1[nH]c2ccccc2n1CCN1CCN(c2ccc(O)c(C(F)(F)F)c2)CC1 [Compound 5, 1-{2-[4-(4-Hydroxy-3-trifluoromethylphenyl)piperazin-1-yl]ethyl}-1,3-dihydro-benzimidazol-2-one] | 705 nM | 17.8 nM | 369 nM
O=c1[nH]c2ccccc2n1CCN1CCN(c2cc(O)cc(C(F)(F)F)c2)CC1 [Compound 6, 1-{2-[4-(3-Hydroxy-5-trifluoromethylphenyl)piperazin-1-yl]ethyl}-1,3-dihydro-benzimidazol-2-one] | 328 nM | 24.8 nM | 156 nM
O=c1[nH]c2ccccc2n1CCN1CCN(c2cc(C(F)(F)F)ccc2O)CC1 [Compound 7, 1-{2-[4-(2-Hydroxy-5-trifluoromethylphenyl)piperazin-1-yl]ethyl}-1,3-dihydro-benzimidazol-2-one] | 4440 nM |  | > 10000 nM

From US6281218A, “Benzimidazolone derivatives having mixed serotonin and dopamine receptors affinity” (Ingelheim Italia S.p.A., priority 1999, dated 2001)
